Laboratory results published in ChEMBL document CHEMBL1134136, “Novel piperidinyloxy oxazolidinone antimicrobial agents” (2001).
Values after ≈ are worked out from the molar mass of the structure shown.

Tests used:
Format in all cases: functional
Enterococcus faecium [1] = assay: Antibacterial activity against vancomycin - resistant Enterococcus faecium (OC 3312 VRE)
Escherichia coli [2] = assay: Antibacterial activity against Escherichia coli (OC 2605)
Escherichia coli [3] = assay: Antibacterial activity against Escherichia coli (OC 2530) (HS)
Staphylococcus aureus [4] = assay: Antibacterial activity against methicillin - resistant Staphylococcus aureus (MRSA OC2878)
Enterococcus faecalis = assay: Antibacterial activity against Enterococcus faecalis (ATCC 29212)
Staphylococcus aureus [5] = assay: Antibacterial activity against methicillin susceptible Staphylococcus aureus (OC 4172) in presence of 50% mouse serum
Staphylococcus aureus [6] = assay: Antibacterial activity against methicillin susceptible Staphylococcus aureus (OC 4172) in broth (without serum)
Staphylococcus aureus [7] = assay: Antibacterial activity towards methicillin - resistant Staphylococcus aureus (MRSA OC2878)
Enterococcus faecium [8] = assay: Minimum inhibitory concentration against vancomycin - resistant Enterococcus faecium (OC 3312 VRE)

SMILES: CC(=O)NC[C@H]1CN(c2ccc(N3CCOCC3)c(F)c2)C(=O)O1 [LINEZOLID]
- MIC (Enterococcus faecium [1]): 2 µg/mL (≈ 5.93 µM)
- MIC (Escherichia coli [2]): 32 µg/mL (≈ 94.9 µM)
- MIC (Escherichia coli [3]): 8 µg/mL (≈ 23.7 µM)

SMILES: CC(=O)NC[C@H]1CN(c2ccc(OC3CCCN(C(=O)CO)C3)c(F)c2)C(=O)O1 (stereo partly drawn)
- MIC (Enterococcus faecium [1]): 16 µg/mL (≈ 39.1 µM)
- MIC (Escherichia coli [2]): > 128 µg/mL
- MIC (Staphylococcus aureus [4]): 8 µg/mL (≈ 19.5 µM)
- MIC (Escherichia coli [3]): 128 µg/mL (≈ 313 µM)
- MIC (Enterococcus faecalis): 16 µg/mL (≈ 39.1 µM)
- MIC (Staphylococcus aureus [5]): 8 µg/mL
- MIC (Staphylococcus aureus [6]): 8 µg/mL (≈ 19.5 µM)

SMILES: CC(=O)NC[C@H]1CN(c2ccc(OC3CCCN(C(=O)COCc4ccccc4)C3)c(F)c2)C(=O)O1 (stereo partly drawn)
- MIC (Enterococcus faecium [1]): 64 µg/mL (≈ 128 µM)
- MIC (Escherichia coli [2]): > 128 µg/mL
- MIC (Staphylococcus aureus [4]): 32 µg/mL (≈ 64.1 µM)
- MIC (Escherichia coli [3]): > 64 µg/mL
- MIC (Enterococcus faecalis): 64 µg/mL (≈ 128 µM)
- MIC (Staphylococcus aureus [5]): 32 µg/mL
- MIC (Staphylococcus aureus [6]): 32 µg/mL (≈ 64.1 µM)

SMILES: CC(=O)NC[C@H]1CN(c2ccc(OC3CCN(C(=O)COCc4ccccc4)C3)c(F)c2)C(=O)O1 (stereo partly drawn)
- MIC (Enterococcus faecium [1]): 16 µg/mL (≈ 33 µM)
- MIC (Escherichia coli [2]): > 128 µg/mL
- MIC (Staphylococcus aureus [4]): 16 µg/mL (≈ 33 µM)
- MIC (Escherichia coli [3]): > 128 µg/mL
- MIC (Enterococcus faecalis): 16 µg/mL (≈ 33 µM)
- MIC (Staphylococcus aureus [5]): 16 µg/mL
- MIC (Staphylococcus aureus [6]): 16 µg/mL (≈ 33 µM)

SMILES: CC(=O)NC[C@H]1CN(c2ccc(OC3CN(C(=O)CO)C3)c(F)c2)C(=O)O1
- MIC (Enterococcus faecium [1]): 16 µg/mL (≈ 42 µM)
- MIC (Escherichia coli [2]): > 128 µg/mL
- MIC (Staphylococcus aureus [4]): 8 µg/mL (≈ 21 µM)
- MIC (Escherichia coli [3]): > 128 µg/mL
- MIC (Enterococcus faecalis): 16 µg/mL (≈ 42 µM)
- MIC (Staphylococcus aureus [5]): 8 µg/mL
- MIC (Staphylococcus aureus [6]): 8 µg/mL (≈ 21 µM)

SMILES: CC(=O)NC[C@H]1CN(c2ccc(OC3CCN(C(=O)CO)C3)c(F)c2)C(=O)O1 (stereo partly drawn)
- MIC (Enterococcus faecium [1]): 16 µg/mL (≈ 40.5 µM)
- MIC (Escherichia coli [2]): 128 µg/mL (≈ 324 µM)
- MIC (Staphylococcus aureus [4]): 8 µg/mL (≈ 20.2 µM)
- MIC (Escherichia coli [3]): 128 µg/mL (≈ 324 µM)
- MIC (Enterococcus faecalis): 16 µg/mL (≈ 40.5 µM)
- MIC (Staphylococcus aureus [5]): 4 µg/mL
- MIC (Staphylococcus aureus [6]): 4 µg/mL (≈ 10.1 µM)

SMILES: CC(=O)NC[C@H]1CN(c2ccc(OC3CCN(C(=O)CO)CC3)cc2)C(=O)O1
- MIC (Enterococcus faecium [1]): 32 µg/mL (≈ 81.8 µM)
- MIC (Escherichia coli [2]): > 128 µg/mL
- MIC (Staphylococcus aureus [4]): 16 µg/mL (≈ 40.9 µM)
- MIC (Escherichia coli [3]): > 128 µg/mL
- MIC (Enterococcus faecalis): 32 µg/mL (≈ 81.8 µM)
- MIC (Staphylococcus aureus [5]): 32 µg/mL
- MIC (Staphylococcus aureus [6]): 16 µg/mL (≈ 40.9 µM)

SMILES: CC(=O)NC[C@H]1CN(c2ccc(OC3CCN(C(=O)COCc4ccccc4)CC3)c(F)c2)C(=O)O1
- MIC (Enterococcus faecium [1]): 4 µg/mL (≈ 8.01 µM)
- MIC (Escherichia coli [2]): > 128 µg/mL
- MIC (Escherichia coli [3]): > 32 µg/mL
- MIC (Enterococcus faecalis): 4 µg/mL (≈ 8.01 µM)
- MIC (Staphylococcus aureus [5]): 16 µg/mL
- MIC (Staphylococcus aureus [7]): 2 µg/mL (≈ 4 µM)
- MIC (Staphylococcus aureus [6]): 4 µg/mL (≈ 8.01 µM)

SMILES: CC(=O)NC[C@H]1CN(c2ccc(OC3CN(C(=O)COCc4ccccc4)C3)c(F)c2)C(=O)O1
- MIC (Enterococcus faecium [1]): 16 µg/mL (≈ 33.9 µM)
- MIC (Escherichia coli [2]): > 128 µg/mL
- MIC (Staphylococcus aureus [4]): 8 µg/mL (≈ 17 µM)
- MIC (Escherichia coli [3]): 64 µg/mL (≈ 136 µM)
- MIC (Enterococcus faecalis): 16 µg/mL (≈ 33.9 µM)
- MIC (Staphylococcus aureus [5]): 16 µg/mL
- MIC (Staphylococcus aureus [6]): 8 µg/mL (≈ 17 µM)

SMILES: CC(=O)NC[C@H]1CN(c2ccc(OC3CCN(C(=O)COCc4ccccc4)CC3)cc2)C(=O)O1
- MIC (Escherichia coli [2]): 128 µg/mL (≈ 266 µM)
- MIC (Staphylococcus aureus [4]): 8 µg/mL (≈ 16.6 µM)
- MIC (Escherichia coli [3]): 128 µg/mL (≈ 266 µM)
- MIC (Enterococcus faecium [8]): 16 µg/mL (≈ 33.2 µM)
- MIC (Enterococcus faecalis): 16 µg/mL (≈ 33.2 µM)
- MIC (Staphylococcus aureus [5]): 64 µg/mL
- MIC (Staphylococcus aureus [6]): 16 µg/mL (≈ 33.2 µM)

SMILES: CC(=O)NC[C@H]1CN(c2ccc(OC3CCN(C(=O)CO)CC3)c(F)c2)C(=O)O1
- MIC (Enterococcus faecium [1]): 8 µg/mL (≈ 19.5 µM)
- MIC (Escherichia coli [2]): > 128 µg/mL
- MIC (Staphylococcus aureus [4]): 4 µg/mL (≈ 9.77 µM)
- MIC (Escherichia coli [3]): 128 µg/mL (≈ 313 µM)
- MIC (Enterococcus faecalis): 8 µg/mL (≈ 19.5 µM)
- MIC (Staphylococcus aureus [5]): 4 µg/mL
- MIC (Staphylococcus aureus [6]): 4 µg/mL (≈ 9.77 µM)
